Experiments:
[1] = system: control sera (pooled serum of ten healthy LUMC hospital workers; commercial negative donor pooled serum from the Dutch bloodbank); assay type: binding, human; design: Binding of Control serum LUMC to linear peptides / Binding of Control serum Blood-bank to linear peptides / Binding of Control serum LUMC to looped peptides / Binding of Control Serum Blood-Bank to Looped peptides / Binding of Control serum LUMC to linear peptides of the protein M of SARS-CoV Urbani / Binding of Control serum Blood-bank to linear peptides of the protein M of SARS-CoV Urbani / Binding of Control serum LUMC to looped peptides of the protein M of SARS-CoV Urbani / Binding of Control Serum Blood-Bank to Looped peptides of the protein M of SARS-CoV Urbani: unit not given here
[2] = system: antibodies in sera from SARS patients (sera 1a, 1b, 2, 6, 37, 62, London, SARS-yellow, SARS-green); assay type: binding, human; design: Binding of serum 6 to linear peptides of protein X1 of SARS-CoV Urbani / Binding of serum 37 to linear peptides of protein X1 of SARS-CoV Urbani / Binding of serum 6 to looped/cyclic peptide (PEPSCAN-ELISA) / Binding of serum 37 to looped/cyclic peptide (PEPSCAN-ELISA) / Binding of serum 37 to looped/cyclic peptides of protein X1 of SARS-CoV Urbani / Binding of serum 6 to linear peptides of protein X2 / Binding of serum 37 to linear peptides of protein X2 / Binding of serum 37 to looped/cyclic peptides of protein X2 of SARS-CoV Urbani / Binding of serum 6 to linear peptides of protein M of SARS-CoV Urbani / Binding of serum 37 to linear peptides of protein M of SARS-CoV Urbani / Binding of serum 6 to looped/cyclic peptides of protein M of SARS-CoV Urbani / Binding of serum 37 to looped/cyclic peptides of protein M of SARS-CoV Urbani / Binding of serum 6 to linear peptides of protein X3 of SARS-CoV Urbani / Binding of serum 37 to linear peptides of protein X3 of SARS-CoV Urbani / Binding of serum 37 to looped/cyclic peptides of protein X3 of SARS-CoV Urbani / Binding of serum 6 to linear peptides of protein X4 of SARS-CoV Urbani / Binding of serum 37 to linear peptides of protein X4 of SARS-CoV Urbani / Binding of serum 37 to looped/cyclic peptides of protein X4 of SARS-CoV Urbani / Binding of serum 6 to linear peptides of protein X5 of SARS-CoV Urbani / Binding of serum 37 to linear peptides of protein X5 of SARS-CoV Urbani / Binding of serum 37 to looped/cyclic peptides of protein X5 of SARS-CoV Urbani / Binding of serum 6 to linear peptides of protein N of SARS-CoV Urbani / Binding of serum 37 to linear peptides of protein N of SARS-CoV Urbani / Binding of serum 6 to linear peptide (PEPSCAN-ELISA) / Binding of serum 1a to looped/cyclic peptides of protein N of SARS-CoV Urbani / Binding of serum 1b to looped/cyclic peptides of protein N of SARS-CoV Urbani / Binding of serum 2 to looped/cyclic peptides of protein N of SARS-CoV Urbani / Binding of serum 6 to looped/cyclic peptides of protein N of SARS-CoV Urbani / Binding of serum 37 to looped/cyclic peptides of protein N of SARS-CoV Urbani / Binding of serum 62 to looped/cyclic peptides of protein N of SARS-CoV Urbani / Binding of serum London to looped/cyclic peptides of protein N of SARS-CoV Urbani / Binding of serum SARS-green to looped/cyclic peptides of protein N of SARS-CoV Urbani: unit not given here
[3] = system: rabbit serum obtained by immunizing a rabbit with the SARS-CoV strain Frankfurt 1; assay type: binding; design: Binding of a rabbit serum to linear peptides / Binding of a rabbit serum to looped peptides / Rabbit serum linear peptides / Rabbit serum looped peptides / Binding of a rabbit serum to linear peptides of protein N of SARS-CoV Urbani (Rabbit serum linear peptides) / Binding of a rabbit serum to looped/cyclic peptides of protein N of SARS-CoV Urbani (Rabbit serum looped peptides): unit not given here
[4] = system: recombinant human anti-SARS-CoV antibody 03-018; assay type: binding; design: Binding of antibody 03-018 to linear peptides of the N protein of SARS-CoV Urbani / Binding of antibody 03-018 to looped/cyclic peptides of the N protein of SARS-CoV Urbani: unit not given here

| Sequence | Binding of serum 1a to looped/cyclic peptides of protein N of SARS-CoV Urbani [2] | Binding of serum 1b to looped/cyclic peptides of protein N of SARS-CoV Urbani [2] | Binding of serum 2 to looped/cyclic peptides of protein N of SARS-CoV Urbani [2] | Binding of serum 6 to looped/cyclic peptides of protein N of SARS-CoV Urbani [2] | Binding of serum 37 to looped/cyclic peptides of protein N of SARS-CoV Urbani [2] | Binding of serum 62 to looped/cyclic peptides of protein N of SARS-CoV Urbani [2] | Binding of serum London to looped/cyclic peptides of protein N of SARS-CoV Urbani [2] | Binding of serum SARS-green to looped/cyclic peptides of protein N of SARS-CoV Urbani [2] | Binding of serum SARS-yellow to looped/cyclic peptides of protein N of SARS-CoV Urbani [2] | Binding of a rabbit serum to linear peptides of protein N of SARS-CoV Urbani (Rabbit serum linear peptides) [3] | Binding of a rabbit serum to looped/cyclic peptides of protein N of SARS-CoV Urbani (Rabbit serum looped peptides) [3] | Binding of antibody 03-018 to linear peptides of the N protein of SARS-CoV Urbani [4] | Binding of antibody 03-018 to looped/cyclic peptides of the N protein of SARS-CoV Urbani [4] | Binding of Control Serum Blood-Bank to Looped peptides [1] | Binding of Control serum Blood-bank to linear peptides [1] | Binding of Control serum LUMC to linear peptides [1] | Binding of Control serum LUMC to looped peptides [1] | Binding of serum 1a to linear peptide (PEPSCAN-ELISA) [2] | Binding of serum 1b to linear peptide (PEPSCAN-ELISA) [2] | Binding of serum 2 to linear peptide (PEPSCAN-ELISA) [2] | other results |
| --- | --- | --- | --- | --- | --- | --- | --- | --- | --- | --- | --- | --- | --- | --- | --- | --- | --- | --- | --- | --- | --- |
| AQPLPQRQKKQPTVT | 0.2 | 0.1 | 0.2 | 0.1 | 0.3 | 0.2 | 0.2 | 0.3 | 0.2 | 0.2 | 0.2 | 0.1 | 0.1 | – | – | – | – | – | – | – | Control Serum Blood-Bank Looped peptides [1]: 0.4; Control serum Blood-bank linear peptides [1]: 0.6; Control serum LUMC linear peptides [1]: 0.7; Control serum LUMC looped peptides [1]: 0.3; Binding of serum 1a to linear peptides of protein N of SARS-CoV Urbani [2]: 0.3; Binding of serum 1b to linear peptides of protein N of SARS-CoV Urbani [2]: 0.2; Binding of serum 2 to linear peptides of protein N of SARS-CoV Urbani [2]: 0.4; Binding of serum 6 to linear peptides of protein N of SARS-CoV Urbani [2]: 0.4; Binding of serum 37 to linear peptides of protein N of SARS-CoV Urbani [2]: 0.7; Binding of serum 62 to linear peptides of protein N of SARS-CoV Urbani [2]: 0.8; Binding of serum London to linear peptides of protein N of SARS-CoV Urbani [2]: 1.6; Binding of serum SARS-green to linear peptides of protein N of SARS-CoV Urbani [2]: 0.3; Binding of serum SARS-yellow to linear peptides of protein N of SARS-CoV Urbani [2]: 1.4 |
| ARPKQRRPQGLPNNT | 0.2 | 0.1 | 0.4 | 0.2 | 0.5 | 0.5 | 0.3 | 0.2 | 0.2 | 0.2 | 0.4 | 0.1 | 0.2 | 0.6 | 0.6 | 0.6 | 0.5 | – | – | – | Binding of serum 1a to linear peptides of protein N of SARS-CoV Urbani [2]: 0.2; Binding of serum 1b to linear peptides of protein N of SARS-CoV Urbani [2]: 0.1; Binding of serum 2 to linear peptides of protein N of SARS-CoV Urbani [2]: 0.3; Binding of serum 6 to linear peptides of protein N of SARS-CoV Urbani [2]: 0.2; Binding of serum 37 to linear peptides of protein N of SARS-CoV Urbani [2]: 0.7; Binding of serum 62 to linear peptides of protein N of SARS-CoV Urbani [2]: 0.6; Binding of serum London to linear peptides of protein N of SARS-CoV Urbani [2]: 0.5; Binding of serum SARS-green to linear peptides of protein N of SARS-CoV Urbani [2]: 0.5; Binding of serum SARS-yellow to linear peptides of protein N of SARS-CoV Urbani [2]: 0.5 |
| ASKKPRQKRTATKQY | 0.3 | 0.1 | 0.3 | 0.2 | 0.5 | 0.5 | 0.4 | 0.1 | 0.2 | 0.2 | 0.4 | 0.1 | 0.2 | 0.6 | 0.7 | 0.6 | 0.5 | 0.2 | 0.1 | 0.3 | Binding of serum 6 to linear peptide (PEPSCAN-ELISA) [2]: 0.2; Binding of serum 37 to linear peptide (PEPSCAN-ELISA) [2]: 0.7; Binding of serum 62 to linear peptide (PEPSCAN-ELISA) [2]: 0.6; Binding of serum London to linear peptide (PEPSCAN-ELISA) [2]: 0.5; Binding of serum SARS-green to linear peptide (PEPSCAN-ELISA) [2]: 0.3; Binding of serum SARS-yellow to linear peptide (PEPSCAN-ELISA) [2]: 0.5 |
| ASSRSSSRSRGNSRN | 0.3 | 0.2 | 0.4 | 0.3 | 0.6 | 0.5 | 0.4 | 0.2 | 0.4 | 0.3 | 0.7 | 0.1 | 0.2 | 0.6 | 0.6 | 0.7 | 0.6 | 0.2 | 0.1 | 0.2 | Binding of serum 6 to linear peptide (PEPSCAN-ELISA) [2]: 0.2; Binding of serum 37 to linear peptide (PEPSCAN-ELISA) [2]: 0.6; Binding of serum 62 to linear peptide (PEPSCAN-ELISA) [2]: 0.5; Binding of serum London to linear peptide (PEPSCAN-ELISA) [2]: 0.5; Binding of serum SARS-green to linear peptide (PEPSCAN-ELISA) [2]: 0.3; Binding of serum SARS-yellow to linear peptide (PEPSCAN-ELISA) [2]: 0.7 |
| ATKQYNVTQAFGRRG | 0.4 | 0.3 | 0.5 | 0.5 | 0.7 | 0.7 | 1.2 | 0.2 | 0.8 | – | – | 0.1 | 0.3 | 0.8 | 0.9 | 0.8 | 0.8 | 0.3 | 0.2 | 0.2 | Binding of serum 6 to linear peptide (PEPSCAN-ELISA) [2]: 0.2; Binding of serum 37 to linear peptide (PEPSCAN-ELISA) [2]: 0.7; Binding of serum 62 to linear peptide (PEPSCAN-ELISA) [2]: 0.6; Binding of serum London to linear peptide (PEPSCAN-ELISA) [2]: 0.5; Binding of serum SARS-green to linear peptide (PEPSCAN-ELISA) [2]: 0.3; Binding of serum SARS-yellow to linear peptide (PEPSCAN-ELISA) [2]: 0.8; Recognition of the peptide by the rabbit serum [3]: recognized |
